Measured values as given in patent US9951042B2, “Polymorphic form of [5-fluoro-3-({2-[(4-fluorobenzene) sulfonyl] pyridin-3-yl}methyl)-2-methylindol-1-yl]-acetic acid” (Atopix Therapeutics Limited, priority 2014, dated 2018).
Converted amounts (≈) assume the structure as drawn. “Also recorded” adds a separate entry of the source.

Columns and labels:
[1] = Dynamic vapour sorption (DVS); assay type: physicochemical
Procedure: DVS (SPS): Sorption Measurement System SPS11-100n. The sample was placed in an Al crucible, and the sample was allowed to equilibrate at a given r.h. before starting a predefined humidity program. The used measurement program can be recognized in the corresponding figures (blue line).
In order to examine the behaviour of Batch 1 in the presence of variable water vapour pressure, the sample was analyzed by DVS. […] The sample was conditioned at 50% r.h. before starting a pre-defined humidity program with a scanning rate of 5% r.h. change per hour. Below 50% r.h. a continuous mass loss is observed. […] At relative humidities above 84% r.h. an increased water uptake is observed. At 95% r.h. no equilibrium is reached. This is typical for amorphous material. At the end of the measurement (end humidity 50% r.h.) the sample has a 0.6% higher mass as the starting material. The sample was checked by FT-Raman (pre- and post DVS measurements).

TG-FTIR thermogravimetry = assay type: physicochemical; details: 25° C. to 250° C., heating rate 10° C./min
Procedure: TG-FTIR: Thermogravimetric measurements were carried out with a Netzsch Thermo-Microbalance TG 209 coupled to a Bruker FTIR Spectrometer Vector 22 or IFS 28 (sample pans with a pinhole, N2 atmosphere, heating rate 10° C./min, range 25° C. up to 250° C.).
Batch 3 was analyzed by TG-FTIR in a temperature range of 25° C. to 250° C. and a heating rate of 10° C./min. […] Decomposition occurs above ˜160° C. Therefore the material is likely a non-solvated form.

CRTH2 receptor = biological target: T1, CRTH2 receptor (Homo sapiens, UniProt Q9Y5Y4); details: cited from earlier work
T1 sequence (Q9Y5Y4 1-395): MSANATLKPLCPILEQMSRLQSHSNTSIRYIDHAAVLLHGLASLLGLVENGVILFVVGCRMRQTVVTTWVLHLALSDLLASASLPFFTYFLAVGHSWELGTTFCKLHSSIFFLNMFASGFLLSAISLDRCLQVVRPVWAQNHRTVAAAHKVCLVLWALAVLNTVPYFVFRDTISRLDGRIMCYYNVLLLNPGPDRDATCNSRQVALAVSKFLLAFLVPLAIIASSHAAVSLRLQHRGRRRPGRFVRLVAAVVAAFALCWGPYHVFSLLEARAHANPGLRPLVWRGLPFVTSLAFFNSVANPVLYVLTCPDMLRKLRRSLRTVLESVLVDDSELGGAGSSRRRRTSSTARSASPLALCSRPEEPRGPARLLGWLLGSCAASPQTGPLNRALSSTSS

[2] = Thermodynamic stability of polymorphic forms (suspension equilibration); assay type: physicochemical
Procedure: Polymorphic Form 3 has a melting signal at 200° C. as measured by differential scanning calorimetry and is stable at temperatures above about 60-65° C.
A mixture with similar ratios of the products of Example 4, Experiment 15 (Form 1), Example 4, Experiment 9 (form 2+x) and Example 4, Experiment 6 (Form 2+Form 3) were suspended in acetonitrile and shaken for 13 days at 22° C. to give a product designated Product P24). The solid was recovered by filter centrifugation and characterized by PXRD. […] These signals could be assigned to (i) another crystalline form or (ii) the signals could not be detected for Product P24 because the diffractogram has a lower intensity.
Thus, after 13 days at 22° C. the PXRD corresponds to that of Form 2.

[3] = Solubility of polymorphic forms in simulated intestinal fluids by HPLC; assay type: physicochemical; details: for Solubility / pH of Saturated solution: 25° C., equilibrated 24 hours
Procedure: The solubility of Form 1, Form 2 and Form 3 was determined by HPLC in fasted state simulated intestinal fluid (FaSSIF) and fed state simulated intestinal fluid (FeSSIF) at 25° C. FaSSIF and FeSSIF were prepared from SIF powder, available at PHARES, Switzerland. Suspensions of […] were prepared and equilibrated for 24 hours at 25° C. The suspensions were filtered. The pH values of the resulting saturated solutions were measured. The filtrates were diluted and analyzed by HPLC using a general, unoptimized method. The values listed below are averages over multiple repetitions. Additionally Raman spectra of the recovered solids were recorded.

SMILES	Temperature range of thermodynamic stability [2]	Solubility ([3]; FaSSIF) [µg/mL]	pH of Saturated solution ([3]; FaSSIF)	Solubility ([3]; FeSSIF) [µg/mL]	pH of Saturated solution ([3]; FeSSIF)	other results
Cc1c(Cc2cccnc2S(=O)(=O)c2ccc(F)cc2)c2cc(F)ccc2n1CC(=O)O [Batch 1, [5-fluoro-3-({2-[(4-fluorobenzene)sulfonyl]pyridin-3-yl}methyl)-2-methylindol-1-yl]-acetic acid]	–	–	–	–	–	Mass change at end of DVS measurement versus starting material ([1]; end humidity 50% r.h., 5% r.h. change per hour): 0.6%; Phase transition after DVS (FT-Raman pre- and post) ([1]; sample recovered from DVS): no phase transition
Cc1c(Cc2cccnc2S(=O)(=O)c2ccc(F)cc2)c2cc(F)ccc2n1CC(=O)O [Batch 3, [5-fluoro-3-({2-[(4-fluorobenzene)sulfonyl]pyridin-3-yl}methyl)-2-methylindol-1-yl]-acetic acid]	–	–	–	–	–	Decomposition temperature (TG-FTIR thermogravimetry): > 160 °C
Cc1c(Cc2cccnc2S(=O)(=O)c2ccc(F)cc2)c2cc(F)ccc2n1CC(=O)O [Compound 1, [5-fluoro-3-({2-[(4-fluorobenzene)sulfonyl]pyridin-3-yl}methyl)-2-methylindol-1-yl]-acetic acid]	–	–	–	–	–	CRTH2 antagonist activity (CRTH2 receptor): has CRTH2 antagonist activity
Cc1c(Cc2cccnc2S(=O)(=O)c2ccc(F)cc2)c2cc(F)ccc2n1CC(=O)O [Form 1, [5-fluoro-3-({2-[(4-fluorobenzene)sulfonyl]pyridin-3-yl}methyl)-2-methylindol-1-yl]-acetic acid]	thermodynamically stable at high temperatures	720 (≈ 1580 µM)	5.7	1180 (≈ 2590 µM)	4.9	–

Further lines, with some results ahead:

Temperature range of thermodynamic stability [2]	Solubility ([3]; FaSSIF) [µg/mL]	pH of Saturated solution ([3]; FaSSIF)	Solubility ([3]; FeSSIF) [µg/mL]	pH of Saturated solution ([3]; FeSSIF)	SMILES	other results
60-65 °C	550 (≈ 1200 µM)	6.1	350 (≈ 767 µM)	5.0	Cc1c(Cc2cccnc2S(=O)(=O)c2ccc(F)cc2)c2cc(F)ccc2n1CC(=O)O [Form 2, [5-fluoro-3-({2-[(4-fluorobenzene)sulfonyl]pyridin-3-yl}methyl)-2-methylindol-1-yl]-acetic acid]	Most stable form after suspension equilibration of a mixture of forms ([2]; acetonitrile, 13 days at 22° C., PXRD): most stable form at room temperature
60-65 °C	1310 (≈ 2870 µM)	5.4	2120 (≈ 4640 µM)	5.0	Cc1c(Cc2cccnc2S(=O)(=O)c2ccc(F)cc2)c2cc(F)ccc2n1CC(=O)O [Form 3, [5-fluoro-3-({2-[(4-fluorobenzene)sulfonyl]pyridin-3-yl}methyl)-2-methylindol-1-yl]-acetic acid]	Comparative solubility among crystalline forms ([3]; FaSSIF and FeSSIF): most soluble crystalline form; also recorded: more soluble in both FaSSIF and FeSSIF
